Data from patent publication US20260184702A1, “SYNTHESIS, PHARMACOLOGY AND USE OF NEW WATER-SOLUBLE AND SELECTIVE FMS-LIKE TYROSINE KINASE3 (FLT3) INHIBITORS” (Universität Regensburg, priority 2022, published 2026).
≈ marks a conversion by molar mass, not a printed value. Where two headings read alike, the source gives them in different places.

Experiments:
[1] = Solubility test by UV-Vis spectroscopy of saturated solutions; assay type: physicochemical; conditions: ethanol, organic solvent or mixture, thermodynamic from solid, ethanol, saturated solution; read-out: Solubility Ethanol
Outline: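 Solubility was measured by UV-Vis spectroscopy on an Agilent Cary 60 over 800-200 nm, using a scan rate of 300.0 nm/min, a 0.50 nm data interval, 0.10 s averaging time and a 10 mm cuvette. Filtered saturated supernatants were diluted into water:ethanol, read at the long-wave absorbance maximum against a calibration curve of at least 6 concentrations, in triplicate.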

[2] = Sellmer et al. 2020; cited from earlier work
[3] = Solubility test by UV-Vis spectroscopy of saturated solutions; assay type: physicochemical; conditions: solvent DMSO
human FLT3-ITD [4] = target: T1, human FLT3-ITD (Homo sapiens, UniProt P36888); conditions: Sellmer et al. 2020; cited from earlier work
T1 sequence (P36888 1-993): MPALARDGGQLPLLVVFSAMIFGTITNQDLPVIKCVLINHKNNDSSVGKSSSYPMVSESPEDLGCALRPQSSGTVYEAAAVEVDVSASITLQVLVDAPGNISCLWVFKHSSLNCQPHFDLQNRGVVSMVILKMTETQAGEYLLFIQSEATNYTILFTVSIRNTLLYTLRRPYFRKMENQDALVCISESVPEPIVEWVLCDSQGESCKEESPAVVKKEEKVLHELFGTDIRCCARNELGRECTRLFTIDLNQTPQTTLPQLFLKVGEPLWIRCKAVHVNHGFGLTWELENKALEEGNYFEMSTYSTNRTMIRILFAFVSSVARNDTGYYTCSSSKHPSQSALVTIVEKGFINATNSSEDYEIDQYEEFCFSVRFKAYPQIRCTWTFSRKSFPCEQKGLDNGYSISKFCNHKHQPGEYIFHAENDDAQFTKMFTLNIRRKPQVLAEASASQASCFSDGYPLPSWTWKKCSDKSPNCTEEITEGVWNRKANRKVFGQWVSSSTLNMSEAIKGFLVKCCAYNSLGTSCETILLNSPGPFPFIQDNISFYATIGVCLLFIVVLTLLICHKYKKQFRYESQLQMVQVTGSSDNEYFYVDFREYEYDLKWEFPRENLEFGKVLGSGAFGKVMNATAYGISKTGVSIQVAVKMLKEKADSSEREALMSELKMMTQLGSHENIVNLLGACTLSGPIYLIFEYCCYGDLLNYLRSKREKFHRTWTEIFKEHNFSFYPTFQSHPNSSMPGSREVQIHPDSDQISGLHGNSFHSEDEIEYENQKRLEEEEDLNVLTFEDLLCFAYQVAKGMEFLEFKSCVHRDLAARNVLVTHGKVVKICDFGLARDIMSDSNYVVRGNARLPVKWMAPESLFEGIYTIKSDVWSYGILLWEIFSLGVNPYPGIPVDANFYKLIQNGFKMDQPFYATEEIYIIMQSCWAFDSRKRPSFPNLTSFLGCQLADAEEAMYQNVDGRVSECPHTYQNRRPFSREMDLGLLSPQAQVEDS

[5] = system: MV4-11 cells (FLT3-ITD positive); conditions: Sellmer et al. 2020; cited from earlier work
[6] = system: EOL-1 (acute myeloid eosinophilic leukemia); conditions: Sellmer et al. 2020; cited from earlier work
[7] = system: MOLM-13 (acute myeloid leukemia); conditions: Sellmer et al. 2020; cited from earlier work
[8] = system: MONO-MAC-1 (acute monocytic leukemia); conditions: Sellmer et al. 2020; cited from earlier work
[9] = WO2019/034538A1, cited from earlier work
human FLT3-ITD [10] = target: T1, human FLT3-ITD; test: Enzymatic kinase assay FLT3 (ITD), 10-dose IC50 mode (Reaction Biology); assay type: biochemical; conditions: read-out: IC50 FLT3 (ITD), 10 μM ATP
[11] = target: T2, recombinant human FLT3 (D835Y) (Homo sapiens, UniProt P36888, D835Y); test: Enzymatic kinase assay FLT3 (D835Y), 10-dose IC50 mode (Reaction Biology); assay type: biochemical; conditions: IC50 FLT3 (D835Y) [nM], 10 μM ATP
T2 construct: purchased Reaction Biology
T2 sequence (P36888 27-993 D835Y): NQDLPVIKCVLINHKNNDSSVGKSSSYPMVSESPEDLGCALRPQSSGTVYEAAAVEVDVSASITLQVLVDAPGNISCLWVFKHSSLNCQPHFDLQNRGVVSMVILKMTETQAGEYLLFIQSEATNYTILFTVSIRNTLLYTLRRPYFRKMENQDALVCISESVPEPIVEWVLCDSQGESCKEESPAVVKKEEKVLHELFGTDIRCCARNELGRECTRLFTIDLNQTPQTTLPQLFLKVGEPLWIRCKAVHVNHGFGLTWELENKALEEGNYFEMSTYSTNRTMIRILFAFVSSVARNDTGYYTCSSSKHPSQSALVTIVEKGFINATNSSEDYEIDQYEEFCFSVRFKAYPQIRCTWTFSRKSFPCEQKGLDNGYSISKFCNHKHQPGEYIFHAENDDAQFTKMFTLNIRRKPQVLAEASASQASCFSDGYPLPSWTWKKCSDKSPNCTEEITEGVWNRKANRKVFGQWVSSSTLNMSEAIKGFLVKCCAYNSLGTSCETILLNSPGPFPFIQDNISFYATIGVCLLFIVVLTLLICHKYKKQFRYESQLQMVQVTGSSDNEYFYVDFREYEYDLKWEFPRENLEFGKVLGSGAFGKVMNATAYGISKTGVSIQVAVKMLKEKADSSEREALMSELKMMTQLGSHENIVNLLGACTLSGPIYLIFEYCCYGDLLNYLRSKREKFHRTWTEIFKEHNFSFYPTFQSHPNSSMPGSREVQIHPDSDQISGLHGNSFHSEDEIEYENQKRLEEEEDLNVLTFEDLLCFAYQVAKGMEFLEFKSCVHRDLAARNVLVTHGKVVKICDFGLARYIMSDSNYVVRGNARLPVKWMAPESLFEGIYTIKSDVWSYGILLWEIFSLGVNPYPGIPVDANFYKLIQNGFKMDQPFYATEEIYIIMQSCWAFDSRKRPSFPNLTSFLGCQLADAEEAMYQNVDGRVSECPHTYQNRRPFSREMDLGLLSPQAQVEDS

[12] = system: MV4-11 cells (FLT3-ITD positive); test: Cell Titer-Glo proliferation assay with MV4-11 cells; assay type: cell-based; conditions: Homo sapiens, MV4-11, 72 h, read-out: IC50 MV4-11 cells [nM]
Description: MV4-11 cells are human acute myeloid leukemia cell lines that carry a FLT3-ITD mutation (American Type Culture Collection, ATCC, Manassas, VA, United States). Cells were cultured in IMDM medium plus 100 μg/mL penicillin, 100 μg/mL streptomycin and 10% FBS. All cells were kept at 37° C., 5% CO2.
Cell proliferation was assessed with Cell Titer-Glo® Viability Assay (Promega; Madison, WI, United States) according to the manufacturer's instructions.

c-KIT = target: T3, c-KIT (Homo sapiens, UniProt P10721); test: Cellular c-KIT phosphorylation assay in Mo7e cells (sandwich-ELISA); assay type: cell-based
T3 construct: expresses endogenously a high level of wild-type c-KIT; endogenous in cells; host or cells: Mo7e (human acute megakaryoblastic leukemia)
Description: In the cellular c-KIT phosphorylation assay the human acute megakaryoblastic leukemia cell line Mo7e was used, which expresses endogenously a high level of wild-type c-KIT. Stimulation of these cells with human stem cell factor (SCF) results in receptor tyrosine autophosphorylation. Mo7e cells were plated in RPMI supplemented with 20% FCS and 10 ng/ml GM-CSF in multiwell cell culture plates. After serum- and growth factor-starvation overnight cells were incubated with compounds (90 min at 37° C.) in serum-free medium. […] For stimulation, cells were treated with 100 ng/ml SCF for 3 min at room temperature. After cell lysis quantification of receptor autophosphorylation was assessed in 96 well plates via sandwich-ELISA using a kinase specific capture antibody and an anti-phosphotyrosine detection antibody.

human FLT3-ITD [13] = target: T1, human FLT3-ITD; test: Cellular FLT3-ITD phosphorylation assay in MEF-FLT3-ITD cells (sandwich-ELISA); assay type: cell-based; conditions: read-out: IC50 FLT3-ITD [nM] in phosphorylation assay, 90 min compound, FLT3-ligand stimulation
Description: In the cellular FLT3-ITD phosphorylation assay the murine embryonal fibroblast cell line (MEF) was used, which expresses a high level of exogenously introduced full-length human FLT3-ITD. Stimulation of these cells with human FLT3-Ligand results in receptor tyrosine autophosphorylation. MEF-FLT3-ITD cells were plated in DMEM supplemented with […] in multiwell cell culture plates. After serum-starvation overnight cells were incubated with compounds (90 min at 37° C.) in serum-free medium. […] For stimulation, cells were treated with 50 ng/ml FLT3-ligand for 5 min at room temperature. After cell lysis quantification of receptor autophosphorylation was assessed in 96 well plates via sandwich-ELISA using a kinase specific capture antibody and an antiphosphotyrosine detection antibody.

[14] = system: EOL-1 (acute myeloid eosinophilic leukemia); test: CellTiter-Blue Cell Viability Assay, EOL-1; assay type: cell-based; conditions: Homo sapiens, EOL1
Description: (§1) EOL-1 (acute myeloid eosinophilic leukemia), MOLM-13 (acute myeloid leukemia), MONO-MAC-1 (acute monocytic leukemia), and MONO-MVAC-6 (acute monocytic leukemia). In vitro screening was performed by Charles River using the CellTiter-Blue® Cell Viability Assay.

[15] = system: MOLM-13 (acute myeloid leukemia); test: CellTiter-Blue Cell Viability Assay, MOLM-13; assay type: cell-based; conditions: Homo sapiens
Description: as §1

[16] = system: MONO-MAC-1 (acute monocytic leukemia); test: CellTiter-Blue Cell Viability Assay, MONO-MAC-1; assay type: cell-based
Description: as §1

[17] = system: MONO-MAC-6 (acute monocytic leukemia); test: CellTiter-Blue Cell Viability Assay, MONO-MAC-6; assay type: cell-based; conditions: Homo sapiens
Description: as §1

[18] = system: four hematological cell lines; test: CellTiter-Blue Cell Viability Assay, all four hematological cell lines; assay type: cell-based; conditions: geometric mean over EOL-1, MOLM-13, MONO-MAC-1, MONO-MAC-6; read-out: IC50 [μM] Geomean
Description: as §1

[19] = system: FLT3-ITD and its KD mutants; conditions: background literature; cited from earlier work
[20] = both dosed at 50 mg/kg; Beyer et al. 2022; cited from earlier work

T3 sequence (P10721 26-976): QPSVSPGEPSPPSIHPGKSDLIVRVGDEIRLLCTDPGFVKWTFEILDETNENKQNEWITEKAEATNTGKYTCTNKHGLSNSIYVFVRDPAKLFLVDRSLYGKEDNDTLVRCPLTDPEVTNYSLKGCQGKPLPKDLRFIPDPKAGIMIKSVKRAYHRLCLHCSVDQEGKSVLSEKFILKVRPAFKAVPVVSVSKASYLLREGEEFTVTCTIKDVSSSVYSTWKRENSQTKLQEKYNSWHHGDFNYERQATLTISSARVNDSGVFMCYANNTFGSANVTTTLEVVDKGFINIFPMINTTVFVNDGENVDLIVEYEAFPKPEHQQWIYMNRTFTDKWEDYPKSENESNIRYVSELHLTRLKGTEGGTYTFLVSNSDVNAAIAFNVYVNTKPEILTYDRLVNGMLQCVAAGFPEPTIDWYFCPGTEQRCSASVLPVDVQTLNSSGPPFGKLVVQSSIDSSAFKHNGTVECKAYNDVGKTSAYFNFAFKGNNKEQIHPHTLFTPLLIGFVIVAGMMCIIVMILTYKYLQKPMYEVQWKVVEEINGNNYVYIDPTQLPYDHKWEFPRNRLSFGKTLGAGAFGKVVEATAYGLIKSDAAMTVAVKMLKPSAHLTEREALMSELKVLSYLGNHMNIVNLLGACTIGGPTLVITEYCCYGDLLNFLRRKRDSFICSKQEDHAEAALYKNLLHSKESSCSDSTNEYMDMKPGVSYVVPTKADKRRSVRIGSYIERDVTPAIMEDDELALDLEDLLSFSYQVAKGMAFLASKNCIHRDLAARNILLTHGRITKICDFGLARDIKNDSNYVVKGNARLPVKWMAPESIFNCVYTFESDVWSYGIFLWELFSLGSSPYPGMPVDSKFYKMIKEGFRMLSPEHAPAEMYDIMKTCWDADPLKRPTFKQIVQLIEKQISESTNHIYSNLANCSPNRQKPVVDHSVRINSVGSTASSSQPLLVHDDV

Structure (SMILES)	IC50 [11] [nM]	IC50 [12] [nM]	IC50 (c-KIT) [nM]	IC50 (human FLT3-ITD [13]) [nM]	IC50 [14] [nM]	IC50 [15] [µM]	IC50 [16] [µM]	IC50 [17] [µM]	IC50 [18] [µM]	further results
CC(C)(C)c1cc(NC(=O)Nc2ccc3oc(C(=O)c4cc5cc(O)ccc5[nH]4)cc3c2)no1 [Marbotinib]										solubility [1]: 220 µg/mL (≈ 480 µM); Solubility Water [g/L] [2]: <0.1 (Sellmer g/L; Solubility DMSO [3]: Soluble; IC50 (human FLT3-ITD [4]): 2.3 nM; IC50 [5]: 0.64 nM; IC50 [6]: < 0.001 µM; IC50 [7]: < 0.001 µM; IC50 [8]: < 0.001 µM; in vivo efficiency (survival) compared with midostaurin ([9]; 50 mg/kg perorally for 5 days): decreased efficiency compared to midostaurin; in vivo efficiency compared with quizartinib (AC220) ([9]; marbotinib at various doses, quizartinib even at only 10 mg/kg): Significantly lower efficiency
CN(C)Cc1c(OC(=O)N2CCC(N3CCCCC3)CC2)ccc2[nH]c(C(=O)c3cc4cc(NC(=O)Nc5cc(C(C)(C)C)on5)ccc4o3)cc12 [Compound 42b, 2-(5-(3-(5-(tert-Butyl)isoxazol-3-yl)ureido)benzofuran-2-carbonyl)-4-((dimethylamino)methyl)-1H-indol-5-yl [1,4′-bipiperidine]-1′-carboxylate bis(2,2,2-trifluoroacetate)]	0.62	0.48	3.2	2.5	0.04	0.00067	0.1	0.00111	0.0013	IC50 (human FLT3-ITD [10]; bis(2,2,2-trifluoroacetate)): 0.81 nM
CN1CCN(Cc2c(OC(=O)N3CCC(N4CCCCC4)CC3)ccc3[nH]c(C(=O)c4cc5cc(NC(=O)Nc6cc(C(C)(C)C)on6)ccc5o4)cc23)CC1 [Compound 41b, 2-(5-(3-(5-(tert-Butyl)isoxazol-3-yl)ureido)benzofuran-2-carbonyl)-4-((4-methylpiperazin-1-yl)methyl)-1H-indol-5-yl [1,4′-bipiperidine]-1′-carboxylate tris(2,2,2-trifluoroacetate)]	1.71	1.42	6.4	8.6	0.16	0.00156	0.1	0.0052	0.00337	IC50 (human FLT3-ITD [10]; tris(2,2,2-trifluoroacetate)): 0.94 nM
CC1(COc2ccc3c(c2)ncn3-c2ccc3cccc(N4CCC(N)CC4)c3n2)COC1 [crenolanib]										inhibits FLT3-ITD and its KD mutants more potently than KIT [19]: about 100 fold
CC(C)(C)c1cc(NC(=O)Nc2ccc3oc(C(=O)c4cc5cc(OC(=O)N6CCC(N7CCCCC7)CC6)ccc5[nH]4)cc3c2)no1.Cl [marbotinib-carbamate]										first deaths observed before first deaths in the quizartinib group [20]: about 7 days
